Literature values in patent US7534771B2, “Tricyclic-nucleoside prodrugs for treating viral infections” (SmithKline Beecham Corporation, priority 2005, dated 2009).

Conditions: patients treated at currently recommended doses

For `NC(=O)c1ncn([C@@H]2O[C@H](CO)[C@@H](O)[C@H]2O)n1` [Ribavirin], the “patients with significant hemolysis” value is given as 10-20%.
